Laboratory results as given in patent publication US10662204B2 (PFIZER INC., priority 2018, dated 2020).

Experiments:
[1] = target: T1, GDP-loaded KRAS (1-169) G12C, C51S, C80L, C118S (Homo sapiens, UniProt P01116, C118S/C51S/C80L/G12C); experiment: Mass Spectrometry Reactivity Assay (MSRA): covalent adduct of compound and KRAS G12C, Percent Modification; assay type: binding; settings: for MSRA (% modification) 10 μM 0.25 hr / MSRA (% modification) 10 μM 0.50 hr: 10 μM compound; for MSRA (% modification) 5.0 μM 0.25 hr / MSRA (% modification) 5.0 μM 0.017 hr: 5.0 μM compound
T1 construct: GDP-loaded KRAS (1-169) G12C, C51S, C80L, C118S
Outline: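 Covalent labelling is measured by intact mass: deconvoluted modified and unmodified peak intensities yield percent modification. Compound, usually 5 μM or 10 μM final, reacts at room temperature with 5 μM GDP-bound KRAS G12C (1-169, C51S/C80L/C118S) in Hepes pH 7.5/NaCl/glycerol, sampled at 1, 15, 30, 60 min.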

KRAS G12C = KRAS G12C (Homo sapiens, UniProt P01116, G12C); experiment: Cell Activity Assay: accumulation of GDP-bound KRAS G12C in MIAPaCa-2 cells (Raf-1 RBD capture, MSD readout); assay type: cell-based; parameters: endogenous in cells; host or cells: MIAPaCa-2; settings: 6 hours, assay limit is 30.00
Outline: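 IC50 came from a 4-parameter fit of Ras signal normalized between DMSO and full-inhibition controls. Readout: lysate GTP-Ras bound to immobilized Raf-1 RBD, quantified with pan-Ras antibody and MSD electrochemiluminescence. Lysates derived from MIAPaCa-2 cells treated 6 h with serially diluted compound, 0.3% DMSO.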

SMILES: C=CC(=O)N1CCN(c2ncnc3c(Oc4c(Cl)c(Cl)cc5[nH]ncc45)nccc23)CC1 [Example 29A, 1-(4-{8-[(5,6-dichloro-1H-indazol-4-yl)oxy]pyrido[3,4-d]pyrimidin-4-yl}piperazin-1-yl)prop-2-en-1-one]
- MSRA (% modification) 10 μM 0.25 hr [1]: 70%
- MSRA (% modification) 10 μM 0.50 hr [1]: 76%
- IC50 (KRAS G12C): 0.391 µM

SMILES: C=CC(=O)N1CCN(c2ncnc3c(Oc4c(C)ccc5[nH]ncc45)nc(C(F)(F)F)cc23)CC1 [Example 03A, 1-(4-{8-[(5-methyl-1H-indazol-4-yl)oxy]-6-(trifluoromethyl)pyrido[3,4-d]pyrimidin-4-yl}piperazin-1-yl)prop-2-en-1-one]
- MSRA (% modification) 10 μM 0.50 hr [1]: 28%
- IC50 (KRAS G12C): 2.74 µM

SMILES: C=CC(=O)N1CCN(c2ncnc3c(Oc4c(C(F)(F)F)ccc5[nH]ncc45)nccc23)CC1 [Example 04C, 1-[4-(8-{[5-(trifluoromethyl)-1H-indazol-4-yl]oxy}pyrido[3,4-d]pyrimidin-4-yl)piperazin-1-yl]prop-2-en-1-one]
- MSRA (% modification) 10 μM 0.50 hr [1]: 21%
- IC50 (KRAS G12C): 18.2 µM

SMILES: C=CC(=O)N1CCN(c2nc(OCc3cccnc3)nc3c(Oc4c(Cl)c(F)cc5[nH]ncc45)nccc23)CC1 [Example 07H, 1-(4-{8-[(5-chloro-6-fluoro-1H-indazol-4-yl)oxy]-2-(pyridin-3-ylmethoxy)pyrido[3,4-d]pyrimidin-4-yl}piperazin-1-yl)prop-2-en-1-one]
- MSRA (% modification) 5.0 μM 0.25 hr [1]: 66%
- MSRA (% modification) 10 μM 0.25 hr [1]: 77%
- IC50 (KRAS G12C): 0.285 µM

SMILES: C=CC(=O)N1CCN(c2nc(OC[C@@H]3C[C@H](OC)CN3C)nc3c(Oc4c(Cl)c(F)cc5[nH]ncc45)nccc23)CC1 [Example 12H, 1-[4-(8-[(5-chloro-6-fluoro-1H-indazol-4-yl)oxy]-2-{[(2S,4S)-4-methoxy-1-methylpyrrolidin-2-yl]methoxy}pyrido[3,4-d]pyrimidin-4-yl)piperazin-1-yl]prop-2-en-1-one]
- MSRA (% modification) 5.0 μM 0.25 hr [1]: 49%
- MSRA (% modification) 10 μM 0.25 hr [1]: 67%
- IC50 (KRAS G12C): 0.691 µM

SMILES: C=CC(=O)N1CCN(c2nc(O[C@@H]3CN(C)C[C@H]3CC)nc3c(Oc4c(Cl)c(F)cc5[nH]ncc45)nccc23)CC1 (racemic) [Example 21I, rac-1-[4-(8-[(5-chloro-6-fluoro-1H-indazol-4-yl)oxy]-2-{[(3S,4R)-4-ethyl-1-methyl-pyrrolidin-3-yl]oxy}pyrido [3,4-d]pyrimidin-4-yl)piperazin-1-yl]prop-2-en-1-one]
- MSRA (% modification) 5.0 μM 0.017 hr [1]: 42%
- IC50 (KRAS G12C): 0.094 µM

SMILES: C=CC(=O)N1CCN(c2nc(OC[C@H]3CCOC3)nc3c(Oc4c(Cl)c(F)cc5[nH]ncc45)nccc23)CC1 [Example 04H, 1-(4-{8-[(5-chloro-6-fluoro-1H-indazol-4-yl)oxy]-2-[(3S)-tetrahydrofuran-3-ylmethoxy]pyrido[3,4-d]pyrimidin-4-yl}piperazin-1-yl)prop-2-en-1-one]
- MSRA (% modification) 5.0 μM 0.25 hr [1]: 65%
- MSRA (% modification) 10 μM 0.25 hr [1]: 73%
- IC50 (KRAS G12C): 0.465 µM

SMILES: C=CC(=O)N1CCN(c2nc(OCCN3CCCC3)nc3c(Oc4c(C)ccc5[nH]ncc45)nccc23)CC1 [Example 12B, 1-(4-{8-[(5-methyl-1H-indazol-4-yl)oxy]-2-[2-(pyrrolidin-1-yl)ethoxy]pyrido[3,4-d]pyrimidin-4-yl}piperazin-1-yl)prop-2-en-1-one]
- MSRA (% modification) 10 μM 0.25 hr [1]: 21%
- IC50 (KRAS G12C): 5.45 µM

SMILES: C=CC(=O)N1CCN(c2nc(OC[C@]3(F)CCCN(C)C3)nc3c(Oc4c(Cl)c(F)cc5[nH]ncc45)nc(Cl)cc23)CC1 [Example 25G, 1-[4-(6-chloro-8-[(5-chloro-6-fluoro-1H-indazol-4-yl)oxy]-2-{[(3S)-3-fluoro-1-methylpiperidin-3-yl]methoxy}pyrido[3,4-d]pyrimidin-4-yl)piperazin-1-yl]prop-2-en-1-one]
- MSRA (% modification) 5.0 μM 0.017 hr [1]: 73%
- IC50 (KRAS G12C): 0.009 µM

SMILES: C#CCCN1C[C@@H](OC)[C@H](Oc2nc(N3CCN(C(=O)C=C)CC3)c3cc(Cl)nc(Oc4c(Cl)c(F)cc5[nH]ncc45)c3n2)C1 [Example 39G, 1-[4-(2-{[(3R,4R)-1-(but-3-yn-1-yl)-4-methoxypyrrolidin-3-yl]oxy}-6-chloro-8-[(5-chloro-6-fluoro-1H-indazol-4-yl)oxy]pyrido[3,4-d]pyrimidin-4-yl)piperazin-1-yl]prop-2-en-1-one]
- MSRA (% modification) 5.0 μM 0.017 hr [1]: 76%
- IC50 (KRAS G12C): 0.014 µM

SMILES: C=CC(=O)N1CCN(c2ncnc3c(Oc4c(Cl)c(F)cc5[nH]ncc45)nc(C#N)cc23)CC1 [Example 32A, 4-(4-acryloylpiperazin-1-yl)-8-[(5-chloro-6-fluoro-1H-indazol-4-yl)oxy]pyrido[3,4-d]pyrimidine-6-carbonitrile]
- MSRA (% modification) 10 μM 0.50 hr [1]: 74%
- IC50 (KRAS G12C): 0.681 µM

SMILES: C=CC(=O)N1CCN(c2nc(O[C@@H]3CCN(CCOC)C[C@H]3C)nc3c(Oc4c(Cl)c(F)cc5[nH]ncc45)nc(Cl)cc23)CC1 (racemic) [Example 33G, rac-1-[4-(6-chloro-8-[(5-chloro-6-fluoro-1H-indazol-4-yl)oxy]-2-{[(3R,4R)-1-(2-methoxyethyl)-3-methylpiperidin-4-yl]oxy}pyrido[3,4-d]pyrimidin-4-yl)piperazin-1-yl]prop-2-en-1-one]
- MSRA (% modification) 5.0 μM 0.017 hr [1]: 51%
- IC50 (KRAS G12C): 0.052 µM

SMILES: C=CC(=O)N1CCN(c2nc(N3CC(N(C)C)C3)nc3c(Oc4c(Cl)c(F)cc5[nH]ncc45)nccc23)CC1 [Example 02H, 1-(4-{8-[(5-chloro-6-fluoro-1H-indazol-4-yl)oxy]-2-[3-(dimethylamino)azetidin-1-yl]pyrido[3,4-d]pyrimidin-4-yl}piperazin-1-yl)prop-2-en-1-one]
- MSRA (% modification) 10 μM 0.25 hr [1]: 53%
- IC50 (KRAS G12C): 0.505 µM

SMILES: C=CC(=O)N1CCN(c2nc(NCCN3CCN(C)CC3)nc3c(Oc4c(C)ccc5[nH]ncc45)cccc23)CC1 [Example 19F, 1-[4-(8-[(5-methyl-1H-indazol-4-yl)oxy]-2-{[2-(4-methylpiperazin-1-yl)ethyl]amino}quinazolin-4-yl)piperazin-1-yl]prop-2-en-1-one]
- MSRA (% modification) 10 μM 0.25 hr [1]: 24%
- IC50 (KRAS G12C): 3.7 µM

SMILES: C=CC(=O)N1CCN(c2nc(OC[C@@H]3CCN(C)C3)nc3c(Oc4c(C)ccc5[nH]ncc45)nccc23)CC1 [Example 10B, 1-[4-(8-[(5-methyl-1H-indazol-4-yl)oxy]-2-{[(3R)-1-methylpyrrolidin-3-yl]methoxy}pyrido[3,4-d]pyrimidin-4-yl)piperazin-1-yl]prop-2-en-1-one]
- MSRA (% modification) 10 μM 0.25 hr [1]: 60%
- IC50 (KRAS G12C): 13.4 µM

SMILES: C=CC(=O)N1CCN(c2nc(OC[C@@H]3CCCN3C)nc3c(Oc4c(C)ccc5[nH]ncc45)nccc23)CC1 [Example 08B, 1-[4-(8-[(5-methyl-1H-indazol-4-yl)oxy]-2-{[(2S)-1-methylpyrrolidin-2-yl]methoxy}pyrido[3,4-d]pyrimidin-4-yl)piperazin-1-yl]prop-2-en-1-one]
- MSRA (% modification) 10 μM 0.25 hr [1]: 44%
- IC50 (KRAS G12C): 2.56 µM

SMILES: C=CC(=O)N1CCN(c2nc(O[C@@H]3CN(C)C[C@H]3C(F)F)nc3c(Oc4c(Cl)c(F)cc5[nH]ncc45)nccc23)CC1 (racemic) [Example 36I, rac-1-[4-(8-[(5-chloro-6-fluoro-1H-indazol-4-yl)oxy]-2-{[(3S,4R)-4-(difluoro-methyl)-1-methyl-pyrrolidin-3-yl]oxy}pyrido [3,4-d]pyrimidin-4-yl)piperazin-1-yl]prop-2-en-1-one]
- MSRA (% modification) 5.0 μM 0.017 hr [1]: 57%
- IC50 (KRAS G12C): 0.029 µM
